Laboratory results: the NIST ThermoML archive (doi:10.1016/j.jct.2018.03.021)
Numbers after ± are expanded uncertainties.

Assays:
[1] = 100 kPa, Liquid, Vibrating tube method
[2] = molar heat capacity at constant pressure; conditions: 100 kPa, Liquid, Extra sensitive DSC
[3] = xn = mol fraction of the nth substance listed; conditions: 100 kPa, Liquid, Vibrating tube method, x2 = 0
[4] = molar heat capacity at constant pressure; xn = mol fraction of the nth substance listed; conditions: 100 kPa, Liquid, Extra sensitive DSC, x2 = 0

mass density ([1]; 298.15 K)	mass density ([1]; 308.15 K)	mass density ([1]; 318.15 K)	mass density ([1]; 328.15 K)	molar heat capacity at constant pressure ([2]; 298.8 K)	molar heat capacity at constant pressure ([2]; 308.7 K)	molar heat capacity at constant pressure ([2]; 318.6 K)	molar heat capacity at constant pressure ([2]; 328.5 K)	Compound	mass density ([3]; 298.15 K)	mass density ([3]; 308.15 K)	mass density ([3]; 318.15 K)	mass density ([3]; 328.15 K)	molar heat capacity at constant pressure ([4]; 298.8 K)	molar heat capacity at constant pressure ([4]; 308.7 K)	molar heat capacity at constant pressure ([4]; 318.6 K)	molar heat capacity at constant pressure ([4]; 328.5 K)
852.99 ± 0.71 kg/m3	844.94 ± 0.71 kg/m3	836.86 ± 0.71 kg/m3	828.75 ± 0.71 kg/m3	240.9 ± 9.3 J/K/mol	244.8 ± 9.5 J/K/mol	249.4 ± 9.7 J/K/mol	254.6 ± 9.9 J/K/mol	Cc1ccc(C(C)C)cc1 [1-(1-methylethyl)-4-methylbenzene]								
799.46 ± 0.71 kg/m3	791.36 ± 0.71 kg/m3	783.1 ± 0.71 kg/m3	774.63 ± 0.71 kg/m3	144.5 ± 5.6 J/K/mol	150.9 ± 5.8 J/K/mol	157.4 ± 6.1 J/K/mol	164.5 ± 6.4 J/K/mol	CCCO [propan-1-ol]								
								CCCO [propan-1-ol] + Cc1ccc(C(C)C)cc1	799.46 ± 0.71 kg/m3	791.36 ± 0.71 kg/m3	783.1 ± 0.71 kg/m3	774.63 ± 0.71 kg/m3	144.5 ± 5.6 J/K/mol	150.9 ± 5.8 J/K/mol	157.4 ± 6.1 J/K/mol	164.5 ± 6.4 J/K/mol
